Test results published in US20260125382A1, “COMPOUNDS FOR INHIBITING OR DEGRADING CDK2 AND/OR CDK9 AND MEDICINAL USE THEREOF” (KOREA RESEARCH INSTITUTE OF CHEMICAL TECHNOLOGY, priority 2022, published 2026).

What was measured:
[1] = target: T1, CDK9 (Homo sapiens, UniProt P50750); assay: CDK protein degradation activity (Western blotting), CDK9; type: cell-based; details: MDA-MB-231 cells, 16 hours, Western blot
T1 construct: endogenous in cells; host or cells: MDA-MB-231
Procedure, shortened: (§1)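 MDA-MB-231 cells treated 16 h with compound at 100 nM, 1 μM or 10 μM, with DMSO as control. Lysates run on SDS-PAGE and immunoblotted for CDK2, CDK9 and tubulin; band levels quantified by densitometry.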

[2] = target: T2, CDK2 (Homo sapiens, UniProt P24941); assay: CDK protein degradation activity (Western blotting), CDK2; type: cell-based; details: MDA-MB-231 cells, 16 hours, Western blot
T2 construct: endogenous in cells; host or cells: MDA-MB-231
Procedure, shortened: as §1

T1 sequence (P50750 whole entry): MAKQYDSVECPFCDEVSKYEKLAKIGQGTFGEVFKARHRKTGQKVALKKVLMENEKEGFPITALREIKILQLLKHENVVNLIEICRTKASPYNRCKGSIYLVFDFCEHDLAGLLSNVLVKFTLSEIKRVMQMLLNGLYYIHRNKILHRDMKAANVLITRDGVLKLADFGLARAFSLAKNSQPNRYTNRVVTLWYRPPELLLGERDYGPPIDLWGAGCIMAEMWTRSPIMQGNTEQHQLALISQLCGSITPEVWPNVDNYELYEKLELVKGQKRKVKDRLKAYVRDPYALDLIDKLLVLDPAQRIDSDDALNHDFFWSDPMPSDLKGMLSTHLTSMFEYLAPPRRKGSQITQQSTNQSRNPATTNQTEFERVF

| Enzyme degradation CDK9 (% remaining) @ 0.1 μM [1] | Enzyme degradation CDK9 (% remaining) @ 1 μM [1] | Enzyme degradation CDK9 (% remaining) @ 10 μM [1] | Enzyme degradation CDK2 (% remaining) @ 0.1 μM [2] | Enzyme degradation CDK2 (% remaining) @ 1 μM [2] | Enzyme degradation CDK2 (% remaining) @ 10 μM [2] | Structure (SMILES) |
| --- | --- | --- | --- | --- | --- | --- |
| 90% | 40% | 0% | 100% | 80% | 10% | CC(=O)NC1CC(n2cnc3c(NCC4CCN(CC5CCN(C(=O)COc6cccc7c6C(=O)N([C@H]6CCC(=O)NC6=O)C7=O)CC5)CC4)ncnc32)C1 (stereo partly drawn) [Compound 155, N-((1s,3s)-3-(6-(((1-((1-(2-((2-(2,6-dioxopiperidin-3-yl)-1,3-dioxoisoindolin-4-yl)oxy)acetyl)piperidin-4-yl)methyl)piperidin-4-yl)methyl)amino)-9H-purin-9-yl)cyclobutyl)acetamide] |
| 80% | 50% | 40% | 100% | 80% | 70% | CC(=O)N[C@H]1C[C@@H](n2cnc3c(NCC4CCN(CC5CCN(C(=O)CNc6ccc7c(c6)C(=O)N([C@H]6CCC(=O)NC6=O)C7=O)CC5)CC4)ncnc32)C1 [Compound 156, N-((1s,3s)-3-(6-(((1-((1-((2-(2,6-dioxopiperidin-3-yl)-1,3-dioxoisoindolin-5-yl)glycyl)piperidin-4-yl)methyl)piperidin-4-yl)methyl)amino)-9H-purin-9-yl)cyclobutyl)acetamide] |
| 90% | 70% | 30% | 100% | 80% | 50% | CC(=O)NC1CC(n2cnc3c(NCC4CCN(CC5CCN(c6cccc7c6C(=O)N([C@H]6CCC(=O)NC6=O)C7=O)CC5)CC4)ncnc32)C1 (stereo partly drawn) [Compound 159, N-((1s,3s)-3-(6-(((1-((1-(2-(2,6-dioxopiperidin-3-yl)-1,3-dioxoisoindolin-4-yl)piperidin-4-yl)methyl)piperidin-4-yl)methyl)amino)-9H-purin-9-yl)cyclobutyl)acetamide] |
| 30% | 10% | 10% | 90% | 80% | 60% | CC(=O)N[C@H]1C[C@@H](n2cnc3c(NCc4ccc(N5CCN(CC6CCN(C(=O)CNc7ccc8c(c7)C(=O)N([C@H]7CCC(=O)NC7=O)C8=O)CC6)CC5)cc4)ncnc32)C1 [Compound 161, N-((1s,3s)-3-(6-((4-(4-((1-((2-(2,6-dioxopiperidin-3-yl)-1,3-dioxoisoindolin-5-yl)glycyl)piperidin-4-yl)methyl)piperazin-1-yl)benzyl)amino)-9H-purin-9-yl)cyclobutyl)acetamide] |
| 0/0/0% | 0/0/0% | 0/0/0% | 50/50/50% | 50/50/50% | 50/50/50% | O=C1CC[C@H](N2C(=O)c3ccc(OCC(=O)N4CCC(CN5CCN(c6ccc(Nc7ncnc8c7ncn8[C@H]7C[C@@H](NC(=O)c8c(Cl)cccc8Cl)C7)cc6)CC5)CC4)cc3C2=O)C(=O)N1 [Compound 162, 2,6-dichloro-N-((1s,3s)-3-(6-((4-(4-((1-(2-((2-(2,6-dioxopiperidin-3-yl)-1,3-dioxoisoindolin-5-yl)oxy)acetyl)piperidin-4-yl)methyl)piperazin-1-yl)phenyl)amino)-9H-purin-9-yl)cyclobutyl)benzamide] |
